melting point: 266 to 268 °C (dec.)
SMILES: CNCCCc1c(C(=O)O)[nH]c2ccc(C(N)=O)cc12 [Example 13, 5-carboxamide-3-(3-methylaminopropyl)-1H-indole-2-carboxylic acid]

Source: patent US8063094B2, “Anti-cytokine heterocyclic compounds” (Boehringer Ingelheim International GmbH, priority 2007, dated 2011)
